These results are taken from PubChem BioAssay AID1850 (Southern Research Specialized Biocontainment Screening …, 2009).

pIC50: −log10 of the molar value.

This experiment has as its system Salmonella Typhi PhoP-promoter GFP reporter, fluorescence, 4 h. Briefly: Inhibition of PhoP regulon, Salmonella typhi GFP reporter cells, confirmation, 4 h (AID 1850).
`CCCCCCOC(=O)C[N+](C)(C)CCOC1CC2CCC1(C)C2(C)C` (stereo unspecified): the negative-log IC50 (pIC50) (commonly −log10 of the IC50, conventionally taken in molar units) was 4.44.

As for `O=C1C(=O)c2ccccc2-c2ccccc21`, the pIC50 is 4.68.

In the case of `Cc1ccc(NC(=O)CSC(N)=O)cc1Cl`, the pIC50 was 4.98.

As for `CCCCCSc1cc(OC)c(CCNC)cc1OC`, the pIC50 was 4.05.

Take `O=C(Cc1ccc(Br)cc1)c1ccc(O)cc1O`: the pIC50 was 3.92.

On to `COc1ccc(CNc2ncnc3c2[nH]c2ccccc23)cc1`, for which the negative-log IC50 (pIC50) is 4.07.

`COc1ccc(/C=C/c2cc(-c3ccc(C)cc3)o[n+]2C)cc1`: the pIC50 is 4.43.

Consider `C/C(=N\N=C(N)N)c1ccc(Cl)c(Cl)c1`, for which the negative logarithm of the IC50 (pIC50) is 4.11.

As to `Cc1ccc(NC(=O)COc2ccccc2CNC(C)(C)CC(C)(C)C)cc1`, the negative logarithm of the IC50 (pIC50) is 4.04.

As to `S=C(Nc1ccc(Cl)c(Cl)c1)NC1CCN(Cc2ccccc2)CC1`, the pIC50 is 4.47.

As to `O=C(N/N=C/c1ccc([N+](=O)[O-])o1)C1CCCC1`, the negative-log IC50 (pIC50) is 4.45.

On to `COc1ccccc1Nc1c2ccccc2nc2ccccc12`, for which the pIC50 is 4.44.

As to `CCCCCCCSc1cc(OC)c(CCNC)cc1OC`, the pIC50 was 4.44.

Turning to `Cc1ccc(Nc2c3c(nc4ccccc24)CCC3)cc1`, the negative-log IC50 (pIC50) is 4.72.

In the case of `Cc1nc2c(=O)n(C)c(=O)nc-2n(C)n1`, the negative-log IC50 (pIC50) was 5.89.

For the compound `Cc1ccc(-c2csc(NC(=O)C[n+]3cc(-c4ccc(C)cc4)n4c3CCC4)n2)cc1`, the pIC50 was 4.60.

Take `COc1cc(CNCCc2c[nH]c3ccccc23)ccc1OCc1ccccc1F`: the negative-log IC50 (pIC50) was 3.88.

On to `OC(CNCCc1ccc(Cl)cc1Cl)COc1ccccc1` (stereo unspecified), for which the pIC50 is 4.15.

As to `Oc1ccc(C[C@H]2CNCCN2CCCCC2CCCCC2)cc1`, the negative logarithm of the IC50 (pIC50) was 4.19.

Regarding `CC1(C)N=C(N)NC(Nc2ccc(Br)cc2)=N1`, the pIC50 is 4.41.

With `CCCCC(=O)NNC(=S)NC(=O)CCC`, the pIC50 was 4.01.

On to `Cc1cc2oc(=O)cc(CN3CCN(C/C=C/c4ccccc4)CC3)c2cc1O`, for which the negative logarithm of the IC50 (pIC50) was 4.09.

Regarding `CCCOc1ccc(C(=O)NNC(=S)NC(=O)c2ccco2)cc1`, the pIC50 was 4.13.

On to `CCOc1ccc(Nc2nc(NCC3CCCO3)c3ccccc3n2)cc1` (stereo unspecified), for which the pIC50 was 5.48.

Regarding `CN(C)C1C(=O)C(C(N)=O)=C(O)C2(O)C(=O)C3=C(O)c4c(O)cccc4C(C)(O)C3CC12` (stereo unspecified), the pIC50 was 5.51.

Consider `O=S1(=O)CC=C(CSC(=S)NC2CCS(=O)(=O)C2)C1` (stereo unspecified), for which the pIC50 is 4.11.

In the case of `CC(C(=O)NC1CCS(=O)(=O)C1)N1C(=O)/C(=C/c2ccc(Cl)cc2)SC1=S` (stereo unspecified), the negative-log IC50 (pIC50) was 4.65.

In the case of `O=c1[nH]c(-c2ccccn2)nc(C(F)(F)F)c1Br`, the pIC50 is 4.15.

As for `CCC(O)(CC)C(=O)N/N=C/c1cc(Br)cc(Br)c1O`, the negative logarithm of the IC50 (pIC50) is 4.11.

In the case of `CC[C@@H](C)[C@H](CN[C@H](CNC)C(C)C)NC[C@@H](C)c1ccc(CC(C)C)cc1`, the negative-log IC50 (pIC50) is 4.13.

Regarding `Cc1cc(/C=C\c2ccc3cc(N(C)C)ccc3[n+]2C)c(C)n1-c1ccccc1`, the pIC50 is 4.56.

Consider `O=C(c1ccccc1)c1c2c(cc3sc4ccccc4[n+]13)-c1cccc3cccc-2c13`, for which the negative-log IC50 (pIC50) was 4.45.

As to `OC(CNCC1CCCO1)Cn1c2ccc(Cl)cc2c2cc(Cl)ccc21` (stereo unspecified), the pIC50 is 4.45.

As to `c1ccc(CN2CCC(Nc3nc(-c4ccccc4)nc4ccccc34)CC2)cc1`, the pIC50 was 4.46.

Take `O=C(N/N=C/c1ccccc1O)C1SCCCS1`: the negative logarithm of the IC50 (pIC50) was 4.06.

With `O=C(N/N=C/c1cc(Br)cc(Br)c1O)c1ccncc1`, the negative logarithm of the IC50 (pIC50) was 4.36.

`O=C(O)c1ccc(N2C(=O)CC(N3C(=O)/C(=C/c4ccc(Cl)cc4)SC3=S)C2=O)cc1` (stereo unspecified): the negative-log IC50 (pIC50) was 4.46.

`COc1cc([N+](=O)[O-])cc(/C=N/NC(=O)c2cccnc2)c1O`: the negative-log IC50 (pIC50) was 4.08.

Consider `CCCCCC(CC(=O)NO)C(=O)NC(C(=O)N1CCCC1CO)C(C)C` (stereo unspecified), for which the pIC50 is 4.81.

For the compound `Oc1c(Br)cc(Br)cc1C=Nc1cccc2ncccc12`, the pIC50 was 4.43.

For the compound `C1=C(CCNc2ncnc3c2[nH]c2ccccc23)CCCC1`, the negative-log IC50 (pIC50) was 4.51.

Consider `CN(C)c1ccc(Nc2nc(N)c3ccccc3n2)cc1`, for which the pIC50 is 4.51.

On to `COc1ccc(N2CC(C(=O)N/N=C/c3cc([N+](=O)[O-])ccc3O)CC2=O)cc1` (stereo unspecified), for which the pIC50 is 3.87.

As for `c1ccc(Nc2ccnc(Nc3ccccc3)n2)cc1`, the pIC50 is 4.47.

Regarding `CC(C)[C@@H]1CC[C@@H](C)C[C@H]1OC(=O)C[n+]1cc(-c2ccc(Cl)cc2)n2c1CCCCC2`, the pIC50 is 4.17.

As to `Cc1ccc(C)c(NC(=O)c2ccccc2O)c1`, the negative-log IC50 (pIC50) is 4.12.

In the case of `O=C(CCN1CCN(C(=O)c2ccccc2)CC1)c1ccc(Br)cc1`, the pIC50 was 3.93.

As for `Cc1occc1C(=O)N/N=C/c1cccs1`, the pIC50 was 4.16.

`O=C(N/N=C/c1cc(Cl)cc(Cl)c1O)c1ccncc1`: the negative logarithm of the IC50 (pIC50) is 4.45.

`Cc1ccc2nc(N(CCCN(C)C)C(=O)c3sc4ccccc4c3Cl)sc2c1`: the negative logarithm of the IC50 (pIC50) was 4.45.

With `CC1CCc2cc(F)cc3c(=O)c(C(=O)O)cn1c23` (stereo unspecified), the pIC50 was 5.21.

On to `Fc1ccc(Nc2nnc(C(F)(F)F)s2)cc1Cl`, for which the pIC50 is 4.43.

As for `O=C(NNc1nc2ccc(F)cc2s1)c1cccc(F)c1`, the negative logarithm of the IC50 (pIC50) is 4.11.

Take `N=c1n(CC(=O)c2ccc(Br)s2)c2ccccc2n1Cc1ccccc1`: the pIC50 is 4.29.

For `O=C(Nc1cccc(Cl)c1)Nc1nccs1`, the negative logarithm of the IC50 (pIC50) is 4.40.

Consider `N/C(=N\OS(=O)(=O)c1ccccc1)c1cccnc1`, for which the negative logarithm of the IC50 (pIC50) was 4.85.

For the compound `CC(C)(C)c1ccc(NC(=O)COC(=O)c2ccc([N+](=O)[O-])s2)cc1`, the pIC50 is 4.66.

For the compound `Oc1ccc(CN2CCN(Cc3ccccc3)CC2)c2cccnc12`, the pIC50 is 4.48.

In the case of `CCCCn1c(NS(=O)(=O)c2ccccc2)c(C(=O)OCC)c2nc3ccccc3nc21`, the negative logarithm of the IC50 (pIC50) is 4.46.

With `CCOC(=O)C1=C(C(C)=O)C(c2cccnc2)C(C#N)=C(N)O1` (stereo unspecified), the pIC50 was 4.04.

Consider `CCCCCCCCCCCCCCCC[n+]1cccc(C(=O)N(CC)CC)c1`, for which the pIC50 was 4.38.

Regarding `CCCCCCC[N+](CC)(CC)CCCCc1ccc(Cl)cc1`, the pIC50 is 4.26.

Take `Cc1ccc2nc(NCc3ccccc3)[nH]c2c1`: the negative-log IC50 (pIC50) was 4.21.

`O=C(NC(=S)NNC(=O)c1ccccc1O)c1ccco1`: the pIC50 was 4.53.

For the compound `Nc1ncn(C2O[C@H](CO)[C@@H](O)[C@H]2O)c(=O)n1` (stereo partly specified), the negative-log IC50 (pIC50) is 4.47.

In the case of `c1ccc2c(NCCc3c[nH]c4ccccc34)c3ccccc3nc2c1`, the pIC50 was 4.44.

For `Oc1c(Br)cc(Br)cc1C=NCc1ccccc1`, the negative-log IC50 (pIC50) is 4.06.

As to `CC1(CC(=O)N/N=C/c2cc([N+](=O)[O-])c(O)cc2O)OCCO1`, the pIC50 is 4.11.

`C#CCOCCOCCOCCNc1nc(N2CCN(C(=O)CCCCCCCCCCNC(=O)Cn3cc(CCCCCN)nn3)CC2)nc(N2CCN(C(=O)CCCCCCCCCCNC(=O)[C@H]([C@@H](C)CC)n3cc(CCCCCN)nn3)CC2)n1`: the pIC50 was 4.41.

Take `CN(C)CCCNC(=S)NCC(c1ccc(Cl)cc1Cl)c1c[nH]c2ccccc12` (stereo unspecified): the pIC50 was 4.28.

In the case of `CN(Cc1ccccc1)CC(O)COc1ccc(CNCc2ccc(Cl)s2)cc1` (stereo unspecified), the negative-log IC50 (pIC50) was 3.91.

With `Oc1ccc(/C=N/Nc2nccnc2Cl)c(O)c1`, the pIC50 was 4.15.

In the case of `CC(C)CCC(CCNCc1ccccn1)c1ccc(Cl)cc1` (stereo unspecified), the negative-log IC50 (pIC50) was 4.18.

Turning to `O=c1cc(-c2ccccc2)cc(-c2ccccc2)n1O`, the negative-log IC50 (pIC50) is 4.72.

For `CN1CCN(C2=Cc3ccccc3Sc3cc(F)ccc32)CC1`, the negative-log IC50 (pIC50) is 4.18.

`O=C(N/N=C/c1cc(O)ccc1Br)c1cccnc1`: the pIC50 is 4.41.

As for `O=C(CCN1CCN(c2ccccc2)CC1)c1ccc(Br)cc1`, the negative-log IC50 (pIC50) is 3.98.

Consider `Cc1ccc2c(c1)c1c(n2CC(O)CNC2CCCCC2)CCCC1` (stereo unspecified), for which the pIC50 is 4.33.

Consider `Cc1cccc2sc(N(CCCN(C)C)C(=O)COc3ccc(Cl)cc3)nc12`, for which the pIC50 is 4.41.

With `Brc1ccc2c(c1)C(OC1CN3CCC1CC3)c1ccccc1CS2` (stereo unspecified), the pIC50 was 4.42.

Regarding `c1ccc2c(c1)CCc1ccccc1C2=C1CCNCC1`, the pIC50 is 4.13.

`N=c1c2c(-c3ccccc3)c(-c3ccccc3)n(Cc3ccco3)c2ncn1CCCn1ccnc1`: the negative-log IC50 (pIC50) was 3.96.

In the case of `OCCN1CCN(CCCN2c3ccccc3Sc3ccc(C(F)(F)F)cc32)CC1`, the negative-log IC50 (pIC50) is 3.98.

Regarding `CCc1ccc(NC(=O)C[n+]2cc(-c3ccc(C)cc3)n3c2CCC3)cc1`, the negative logarithm of the IC50 (pIC50) is 4.40.

In the case of `COc1c(N2CCN(C(=S)Nc3ccccc3F)C(C)C2)c(F)cc2c(=O)c(C(=O)O)cn(C3CC3)c12` (stereo unspecified), the pIC50 is 5.79.

In the case of `CCn1nc(C(=O)O)c(=O)c2cc3c(cc21)OCO3`, the negative-log IC50 (pIC50) was 4.46.

Take `Oc1cccc(C=NCc2ccccc2)c1O`: the negative logarithm of the IC50 (pIC50) is 4.29.

Regarding `CCOC(=O)N1CCN(CCC(=O)c2ccc(Cl)cc2)CC1`, the pIC50 is 4.11.

Consider `CCc1ccc(-c2nn(-c3ccccc3)cc2CSC(=N)N)cc1`, for which the pIC50 was 4.49.

Turning to `C[C@H]1c2cccc(O)c2C(O)=C2C(=O)[C@]3(O)C(O)=C(C(N)=O)C(=O)[C@@H](N(C)C)C3[C@@H](O)C21` (stereo partly specified), the pIC50 was 5.72.

Turning to `CCCCOc1ccc(NC2=NC3(CCCC3)N=C(N)N2)cc1`, the negative logarithm of the IC50 (pIC50) was 4.68.

With `CC(C)(c1ccccc1)c1ccc(OCCCN2CCNCC2)cc1`, the pIC50 is 4.25.

`C#CCOCCOCCOCCNc1nc(N2CCN(C(=O)CCCCCCCCCCNC(=O)[C@H](CO)n3cc(CCCCCN)nn3)CC2)nc(N2CCN(C(=O)CCCCCCCCCCNC(=O)[C@H](CCCN=C(N)N)n3cc(C[C@@H](C)CC)nn3)CC2)n1`: the pIC50 is 4.61.

For `O=C(N/N=C/c1cc([N+](=O)[O-])ccc1O)C1CC1`, the pIC50 was 4.53.

As for `O=C(/C=C(\O)c1ccccc1)C(=O)NNC(=O)c1ccccc1`, the negative logarithm of the IC50 (pIC50) is 4.62.

For `Cc1cc(OCC(O)CNC(C)c2ccccc2)ccc1C(C)C` (stereo unspecified), the pIC50 was 4.42.

As to `COc1cc([N+](=O)[O-])cc(/C=N/NC(=O)CSc2ccccn2)c1O`, the negative-log IC50 (pIC50) was 3.90.

Regarding `Cc1[nH]c2ccc(OC(F)(F)F)cc2c1CCNCc1ccc(Cl)cc1`, the pIC50 was 4.66.

On to `COc1cccc(Nc2nc(NCCO)c3ccccc3n2)c1`, for which the negative-log IC50 (pIC50) is 4.70.

Take `CNC(=S)N1CCN(c2c(F)cc3c(=O)c(C(=O)O)cn(C4CC4)c3c2OC)CC1C` (stereo unspecified): the pIC50 was 5.11.

As for `Cc1ccc(Nc2nc(NCCO)c3ccccc3n2)cc1C`, the pIC50 was 4.73.
